Results as given in ChEMBL document CHEMBL4622899, “Synthesis and anticancer activity of open-resorcinarene conjugates” (Bioorg Med Chem Lett, 2020).

Columns and labels:
U-251 = experiment: Anticancer activity against human U251 cells assessed as cell growth inhibition measured after 48 hrs by MTT assay; assay type: functional, cell-based
PC-3 = experiment: Anticancer activity against human PC3 cells assessed as cell growth inhibition measured after 48 hrs by MTT assay; assay type: functional, cell-based
K562 = experiment: Anticancer activity against human K562 cells assessed as cell growth inhibition measured after 48 hrs by MTT assay; assay type: functional, cell-based
HCT-15 = experiment: Anticancer activity against human HCT15 cells assessed as cell growth inhibition measured after 48 hrs by MTT assay; assay type: functional, cell-based
MCF7 = experiment: Anticancer activity against human MCF7 cells assessed as cell growth inhibition measured after 48 hrs by MTT assay; assay type: functional, cell-based
SK-LU-1 = experiment: Anticancer activity against human SKLU1 cells assessed as cell growth inhibition measured after 48 hrs by MTT assay; assay type: functional, cell-based
COS-7 = experiment: Cytotoxicity against African green monkey COS7 cells assessed as cell growth inhibition measured after 48 hrs by MTT assay; assay type: cell-based, Chlorocebus aethiops
[1] = Homo sapiens, U-251, 48 h, read-out: IC50
[2] = Homo sapiens, PC-3, 48 h, read-out: IC50
[3] = Homo sapiens, K562, 48 h, read-out: IC50
[4] = Homo sapiens, HCT-15, 48 h, read-out: IC50
[5] = Homo sapiens, MCF7, 48 h, read-out: IC50
[6] = Homo sapiens, SK-LU-1, 48 h, read-out: IC50
[7] = Chlorocebus aethiops, COS-7, 48 h, read-out: IC50

IC50 (U-251; u-251) | IC50 (PC-3; pc-3) | IC50 (K562; k562) | IC50 (HCT-15; hct-15) | IC50 (MCF7; mcf7) | IC50 (SK-LU-1; sk-lu-1) | IC50 (U-251; [1]) | IC50 (PC-3; [2]) | IC50 (K562; [3]) | IC50 (HCT-15; [4]) | IC50 (MCF7; [5]) | IC50 (SK-LU-1; [6]) | SMILES | IC50 (COS-7; cos-7) | IC50 (COS-7; [7])
Not Active | Not Active | Not Active | Not Active | Not Active | Not Active |  |  |  |  |  |  | O=C(COc1cc(OCC(=O)NCCO)c(C(c2ccc(C(c3cc(Cl)c(OCC(=O)NCCO)cc3OCC(=O)NCCO)c3cc(Cl)c(OCC(=O)NCCO)cc3OCC(=O)NCCO)cc2)c2cc(Cl)c(OCC(=O)NCCO)cc2OCC(=O)NCCO)cc1Cl)NCCO | Not Active | 
 |  |  |  |  |  | 50.3 µM | > 1000 µM | > 1000 µM | > 1000 µM | > 1000 µM | > 1000 µM | COc1ccc2cc([C@H](C)C(=O)OCCNC(=O)COc3cc(OCC(=O)NCCOC(=O)[C@@H](C)c4ccc5cc(OC)ccc5c4)c(C(c4ccc(C(c5cc(Cl)c(OCC(=O)NCCOC(=O)[C@@H](C)c6ccc7cc(OC)ccc7c6)cc5OCC(=O)NCCOC(=O)[C@@H](C)c5ccc6cc(OC)ccc6c5)c5cc(Cl)c(OCC(=O)NCCOC(=O)[C@@H](C)c6ccc7cc(OC)ccc7c6)cc5OCC(=O)NCCOC(=O)[C@@H](C)c5ccc6cc(OC)ccc6c5)cc4)c4cc(Cl)c(OCC(=O)NCCOC(=O)[C@@H](C)c5ccc6cc(OC)ccc6c5)cc4OCC(=O)NCCOC(=O)[C@@H](C)c4ccc5cc(OC)ccc5c4)cc3Cl)ccc2c1 |  | > 1000 µM
 |  |  |  |  |  | > 1000 µM | > 1000 µM | > 1000 µM | > 1000 µM | > 1000 µM | > 1000 µM | CC(C)Cc1ccc(C(C)C(=O)OCCNC(=O)COc2cc(OCC(=O)NCCOC(=O)C(C)c3ccc(CC(C)C)cc3)c(C(c3ccc(C(c4cc(Cl)c(OCC(=O)NCCOC(=O)C(C)c5ccc(CC(C)C)cc5)cc4OCC(=O)NCCOC(=O)C(C)c4ccc(CC(C)C)cc4)c4cc(Cl)c(OCC(=O)NCCOC(=O)C(C)c5ccc(CC(C)C)cc5)cc4OCC(=O)NCCOC(=O)C(C)c4ccc(CC(C)C)cc4)cc3)c3cc(Cl)c(OCC(=O)NCCOC(=O)C(C)c4ccc(CC(C)C)cc4)cc3OCC(=O)NCCOC(=O)C(C)c3ccc(CC(C)C)cc3)cc2Cl)cc1 (configuration not stated) |  | > 1000 µM
 |  |  |  |  |  | 23.1 µM | > 1000 µM | > 1000 µM | > 1000 µM | > 1000 µM | > 1000 µM | COc1ccc2c(c1)c(CC(=O)OCCNC(=O)COc1cc(OCC(=O)NCCOC(=O)Cc3c(C)n(C(=O)c4ccc(Cl)cc4)c4ccc(OC)cc34)c(C(c3ccc(C(c4cc(Cl)c(OCC(=O)NCCOC(=O)Cc5c(C)n(C(=O)c6ccc(Cl)cc6)c6ccc(OC)cc56)cc4OCC(=O)NCCOC(=O)Cc4c(C)n(C(=O)c5ccc(Cl)cc5)c5ccc(OC)cc45)c4cc(Cl)c(OCC(=O)NCCOC(=O)Cc5c(C)n(C(=O)c6ccc(Cl)cc6)c6ccc(OC)cc56)cc4OCC(=O)NCCOC(=O)Cc4c(C)n(C(=O)c5ccc(Cl)cc5)c5ccc(OC)cc45)cc3)c3cc(Cl)c(OCC(=O)NCCOC(=O)Cc4c(C)n(C(=O)c5ccc(Cl)cc5)c5ccc(OC)cc45)cc3OCC(=O)NCCOC(=O)Cc3c(C)n(C(=O)c4ccc(Cl)cc4)c4ccc(OC)cc34)cc1Cl)c(C)n2C(=O)c1ccc(Cl)cc1 |  | > 1000 µM
Not Active | Not Active | Not Active | Not Active | Not Active | Not Active |  |  |  |  |  |  | COC(=O)COc1cc(OCC(=O)OC)c(C(c2ccc(C(c3cc(Cl)c(OCC(=O)OC)cc3OCC(=O)OC)c3cc(Cl)c(OCC(=O)OC)cc3OCC(=O)OC)cc2)c2cc(Cl)c(OCC(=O)OC)cc2OCC(=O)OC)cc1Cl | Not Active | 
Not Active | Not Active | Not Active | Not Active | Not Active | Not Active |  |  |  |  |  |  | Oc1cc(O)c(C(c2ccc(C(c3cc(Cl)c(O)cc3O)c3cc(Cl)c(O)cc3O)cc2)c2cc(Cl)c(O)cc2O)cc1Cl | Not Active | 
 |  |  |  |  |  | > 1000 µM | > 1000 µM | > 1000 µM | > 1000 µM | 92.1 µM | 90.6 µM | CC(C)Cc1ccc(C(C)C(=O)O)cc1 (configuration not stated) [IBUPROFEN] |  | > 1000 µM
 |  |  |  |  |  | 20.4 µM | > 1000 µM | 190 µM | > 1000 µM | > 1000 µM | > 1000 µM | COc1ccc2c(c1)c(CC(=O)O)c(C)n2C(=O)c1ccc(Cl)cc1 [INDOMETHACIN] |  | > 1000 µM
 |  |  |  |  |  | > 1000 µM | > 1000 µM | 181 µM | > 1000 µM | > 1000 µM | > 1000 µM | COc1ccc2cc([C@H](C)C(=O)O)ccc2c1 [NAPROXEN] |  | > 1000 µM

SMILES | IC50 (U-251; u-251) | IC50 (PC-3; pc-3) | IC50 (K562; k562) | IC50 (HCT-15; hct-15) | IC50 (MCF7; mcf7) | IC50 (SK-LU-1; sk-lu-1) | IC50 (U-251; [1]) | IC50 (PC-3; [2]) | IC50 (K562; [3]) | IC50 (HCT-15; [4]) | IC50 (MCF7; [5]) | IC50 (SK-LU-1; [6]) | IC50 (COS-7; cos-7) | IC50 (COS-7; [7])
O=C(COc1cc(OCC(=O)NCCOC(=O)CCCc2ccc(N(CCCl)CCCl)cc2)c(C(c2ccc(C(c3cc(Cl)c(OCC(=O)NCCOC(=O)CCCc4ccc(N(CCCl)CCCl)cc4)cc3OCC(=O)NCCOC(=O)CCCc3ccc(N(CCCl)CCCl)cc3)c3cc(Cl)c(OCC(=O)NCCOC(=O)CCCc4ccc(N(CCCl)CCCl)cc4)cc3OCC(=O)NCCOC(=O)CCCc3ccc(N(CCCl)CCCl)cc3)cc2)c2cc(Cl)c(OCC(=O)NCCOC(=O)CCCc3ccc(N(CCCl)CCCl)cc3)cc2OCC(=O)NCCOC(=O)CCCc2ccc(N(CCCl)CCCl)cc2)cc1Cl)NCCOC(=O)CCCc1ccc(N(CCCl)CCCl)cc1 |  |  |  |  |  |  | 24.3 µM | 34 µM | 51.4 µM | 201 µM | 81 µM | 80 µM |  | > 1000 µM
O=C(O)CCCc1ccc(N(CCCl)CCCl)cc1 [CHLORAMBUCIL] |  |  |  |  |  |  | 33.1 µM | 16.4 µM | 103 µM | 3.11 µM | > 100 µM | 300 µM |  | 43.5 µM
